The values that follow come from article PMC6934184, “Selective DNA-PKcs inhibition extends the therapeutic index of localized radiotherapy and chemotherapy” (The Journal of Clinical Investigation, 2019).

The target of this test is T1, MAP2K3 (MEK3) (Homo sapiens, UniProt P46734).
T1 construct: purchased Thermo Fisher Scientific (Life Technologies) SelectScreen
Put plainly: SelectScreen LanthaScreen. It is filed as binding. The conditions noted are these: read-out: % displacement. The protocol: The in vitro kinase selectivity of NU5455 was determined using the SelectScreen Broad Assay Panel (Thermo Fisher Scientific) involving activity and binding assays (Supplemental Table 1). […] Class IA PI3Ks were measured using the p85α subunit.
Kinase [ATP] % Assay Kinase [ATP] % Assay Kinase [ATP] % Assay Kinase [ATP] % Assay
DNA-PK Km app 98.3 Z LATS2 n/a 4.7 L KIT D820E n/a 1.3 L GSK3B (GSK3 beta) Km app -2.5 Z
PIK3C3 (hVPS34) Km app 85.9 A PRKCZ (PKC zeta) Km app 4.7 Z GRK1 n/a 1.3 L BMPR2 n/a -2.5 L
PIK3C2B (PI3K-C2 beta) 10 28.9 A FGFR1 Km app 4.7 Z BRSK2 n/a 1.2 L CDC42 BPB (MRCKB) Km app -2.5 Z
SNF1LK2 Km app 26.6 Z MINK1 Km app 4.6 Z NUAK1 (ARK5) Km app 1.2 A AMPK (A2/B2/G2) n/a -2.6 L
HCK Km app 18.0 Z CSF1R (FMS) Km app 4.3 Z CDK9/cyclin K n/a 1.0 L PRKG1 Km app -2.7 Z
NEK2 Km app 17.8 Z CSNK1G3 (CK1 gamma 3) Km app 4.2 Z NUAK2 n/a 1.0 L KIT T670E n/a -2.8 L
ALK Km app 17.3 Z STK32C (YANK3) n/a 4.2 L CDK2/cyclin O n/a 0.9 L ERBB4 (HER4) Km app -2.8 Z
FGFR3 K650M n/a 16.5 L STK22D (TSSK1) Km app 4.2 Z CAMKK2 (CaMKK beta) n/a 0.9 L PLK4 n/a -2.8 L
SIK3 n/a 16.1 L TAOK3 (JIK) n/a 4.2 L FGFR3 Km app 0.9 Z GRK7 Km app -3.0 Z
LYN A Km app 15.2 Z RPS6KA4 (MSK2) Km app 4.2 Z ULK2 n/a 0.9 L MAPKAPK2 Km app -3.1 Z
BMPR1B (ALK6) n/a 14.5 L PTK2B (FAK2) Km app 4.2 Z KIT D816V n/a 0.9 L FGFR4 Km app -3.1 Z
INSRR (IRR) Km app 14.1 Z CLK2 Km app 4.1 Z CAMK1 (CaMK1) 10 0.8 A CASK n/a -3.1 L
PLK2 Km app 14.1 Z STK24 (MST3) Km app 4.1 Z PTK6 (Brk) Km app 0.7 Z GRK5 Km app -3.2 Z
PRKACA (PKA) Km app 14.0 Z CAMK1D (CaMKI delta) Km app 4.1 Z CAMK2B (CaMKII beta) Km app 0.7 Z EGFR (ErbB1) T790M Km app -3.3 Z
EIF2AK2 (PKR) n/a 13.3 L INSR Km app 4.1 Z ACVR1 (ALK2) n/a 0.7 L PAK4 Km app -3.3 Z
PRKX Km app 12.5 Z IRAK1 Km app 4.0 A ABL1 H396P n/a 0.6 L DAPK3 (ZIPK) Km app -3.4 Z
FGR Km app 12.1 Z SRC N1 Km app 3.9 Z MERTK (cMER) A708S n/a 0.6 L RET M918T n/a -3.5 L
CLK1 Km app 11.7 Z SRPK2 Km app 3.9 Z MAPKAPK5 (PRAK) Km app 0.6 Z PRKCQ (PKC theta) Km app -3.7 Z
MARK3 Km app 11.4 Z RPS6KA6 (RSK4) Km app 3.8 Z AKT1 (PKB alpha) Km app 0.5 Z CAMKK1 (CAMKKA) n/a -3.8 L
PDGFRB (PDGFR beta) Km app 11.0 Z GRK6 Km app 3.7 Z NTRK3 (TRKC) Km app 0.4 Z FLT3 D835Y Km app -3.9 Z
PRKCN (PKD3) Km app 10.7 Z PKN1 (PRK1) Km app 3.6 Z ZAP70 Km app 0.3 Z ROCK2 Km app -4.1 Z
STK16 (PKL12) n/a 10.5 L MAP3K8 (COT) 100 3.5 Z CSNK1A1 (CK1 alpha 1) Km app 0.3 Z CHUK (IKK alpha) Km app -4.2 A
FES (FPS) Km app 10.4 Z FLT4 (VEGFR3) Km app 3.5 Z MYLK (MLCK) n/a 0.2 L AXL Km app -4.2 Z
ABL1 Km app 10.4 Z GRK4 Km app 3.5 Z MKNK2 (MNK2) n/a 0.2 L PIM2 Km app -4.3 Z
MUSK Km app 10.3 Z FRK (PTK5) Km app 3.4 Z AMPK (A1/B1/G3) n/a 0.2 L PAK1 Km app -4.4 Z
MAPK1 (ERK2) Km app 10.1 Z FYN A n/a 3.3 L MAP3K2 (MEKK2) n/a 0.1 L BMPR1A (ALK3) n/a -4.4 L
BRAF 100 9.9 Z CDK1/cyclin A2 n/a 3.3 L CDK8/cyclin C n/a 0.1 L STK4 (MST1) Km app -4.4 Z
IGF1R Km app 9.7 Z KIT V559D T670I n/a 3.1 L MARK2 Km app 0.1 Z PRKCH (PKC eta) Km app -4.6 Z
MAPK14 (p38 alpha) Km app 9.7 Z SPHK2 10 3.1 A ICK n/a 0.0 L SGKL (SGK3) Km app -4.6 Z
LCK Km app 9.6 Z FGFR3 G697C n/a 3.1 L FGFR2 Km app 0.0 Z PI4KB (PI4K beta) Km app -4.7 A
MAPK11 (p38 beta) Km app 9.5 Z RIPK2 n/a 3.1 L AKT2 (PKB beta) Km app 0.0 Z PRKCE (PKC epsilon) Km app -4.9 Z
SRC Km app 9.5 Z PAK6 Km app 3.0 Z EPHB2 Km app -0.1 Z PHKG1 Km app -5.0 Z
CHEK1 (CHK1) Km app 9.3 Z LYN B Km app 3.0 Z TGFBR2 n/a -0.1 L PDGFRA D842V Km app -5.0 Z
CAMK2D (CaMKII delta) Km app 9.3 Z DAPK2 n/a 2.9 L TEK (Tie2) Km app -0.1 Z PRKG2 (PKG2) Km app -5.1 Z
PLK1 Km app 9.2 Z EPHA4 Km app 2.9 Z AURKA (Aurora A) Km app -0.1 Z TYRO3 (RSE) Km app -5.1 Z
RET Y791F Km app 9.2 Z PIK3CG (p110 gamma) Km app 2.9 A KIT D816H n/a -0.2 L TAOK2 (TAO1) Km app -5.1 Z
FLT3 Km app 9.1 Z HIPK1 (Myak) Km app 2.8 Z KIT N822K n/a -0.2 L EPHB4 Km app -5.3 Z
MAPK10 (JNK3) 100 9.0 Z ADRBK2 (GRK3) Km app 2.8 Z PRKACG (PRKAC gamma) n/a -0.2 L AURKC (Aurora C) Km app -5.4 Z
CSNK2A2 (CK2 alpha 2) Km app 8.7 Z STK17B (DRAK2) n/a 2.7 L TEK (TIE2) Y1108F n/a -0.3 L JAK1 Km app -5.7 Z […]

T1 sequence (P46734 whole entry): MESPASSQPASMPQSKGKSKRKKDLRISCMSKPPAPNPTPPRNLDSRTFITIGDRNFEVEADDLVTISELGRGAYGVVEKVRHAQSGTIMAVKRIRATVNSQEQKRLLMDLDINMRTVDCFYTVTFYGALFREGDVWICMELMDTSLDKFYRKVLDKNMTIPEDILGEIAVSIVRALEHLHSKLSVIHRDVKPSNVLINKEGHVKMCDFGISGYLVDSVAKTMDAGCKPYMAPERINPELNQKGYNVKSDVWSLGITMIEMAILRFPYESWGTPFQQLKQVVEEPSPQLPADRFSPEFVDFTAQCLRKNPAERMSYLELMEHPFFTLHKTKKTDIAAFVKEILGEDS

As to `CN(C(=O)CN1CCOCC1)c1ccc2sc3c(-c4cccc5c(=O)cc(N6CC7CCC(C6)O7)oc45)cccc3c2c1` [NU5455], the inhibition at 1 µM came to 1.6%.
